In patent US20250380701A1, “HERBICIDAL COMBINATIONS AND A METHOD FOR CONTROLLING UNDESIRED VEGETATION” (UPL Mauritius Limited, priority 2022, published 2025):

Tested on: weedy Glycine max
Experiment: Post-emergence herbicidal activity trial, efficacy on weedy Glycine max (Colby evaluation)
Assay type: in vivo
Procedure: The following products were used for testing the weed control efficacy of present herbicidal combinations.
Methodology: Trials were carried out to evaluate the efficacy of the combination of L-glufosinate ammonium (glufosinate-P-ammonium) and the additional herbicides on weedy Glycine max.
The soil used was sandy clay loam-sand: 68.0%; silt: 8.0%; clay: 24.0%.
All treatments were in 3 replications per treatment with a spray volume of about 150 L/ha.
The expected efficacy of a combination of L-glufosinate and the other herbicides was calculated using the well-established Colby method. Any difference between the observed and “expected” efficacy could be attributed to synergy between the two compounds.
In the Colby method, the expected (or predicted) response of a combination of herbicides is calculated by taking the product of the observed response for each individual component of the combination when applied alone, divided by 100, and subtracting this value from the sum of the observed response for each component when applied alone. An unexpected enhancement in efficacy of the combination is then determined by comparing the observed response of the combination to the expected (or predicted) response as calculated from the observed response of each individual component alone. If the observed response of the combination is greater than the expected (or predicted) response, or stated conversely, if the difference between the observed and expected response is greater than zero, then the combination is said to be synergistic or unexpectedly effective (Colby, S. R., Weeds, 1967(15), p. 20-22). The Colby method requires only a single dose of each herbicide applied alone and the mixture of both doses. The formula used to calculate the expected efficacy (EE) which was compared with the observed efficacy (OE) to determine the efficacy of the present disclosure is explained hereinbelow:
The expected efficacy for a combination of two active ingredients is as follows:
wherein, • A=Observed efficacy of active ingredient A at the same concentration as used in the mixture. • B=Observed efficacy of the active ingredient B at the same concentration as used in the mixture. • C=Observed efficacy of the active ingredient C at the same concentration as used in the mixture.
Experiments were conducted to assess the efficacy of the herbicidal combination comprising L-glufosinate ammonium and quizalofop-ethyl to control weedy Glycine max.
The percentage efficacy was calculated after 3, 28 and 35 days of applications (DAA). The target weed was Glycine max, and the concentration of the herbicide and the results are recorded in Table 2.
Experiments were conducted to assess the efficacy of the herbicidal combination comprising L-glufosinate ammonium and quizalofop-p-tefuryl to control the weedy Glycine max
The percentage efficacy was calculated after 3, 28 and 35 days of applications (DAA). The target weed was weedy Glycine max, and the concentration of the herbicide and the results are recorded in Table 3.

## CP(=O)(O)CC[C@H](N)C(=O)O.N [L-glufosinate ammonium]
Example 1 (Table 2), 3 DAA
  Observed efficacy (%) of L-glufosinate ammonium (150 g a.i./ha): 50%
Example 1 (Table 2), 28 DAA
  Observed efficacy (%) of L-glufosinate ammonium (150 g a.i./ha): 40%
Example 1 (Table 2), 35 DAA
  Observed efficacy (%) of L-glufosinate ammonium (150 g a.i./ha): 40%
Example 2 (Table 3), 3 DAA
  Observed efficacy (%) of L-glufosinate ammonium (150 g a.i./ha): 50%
Example 2 (Table 3), 28 DAA
  Observed efficacy (%) of L-glufosinate ammonium (150 g a.i./ha): 60%
Example 2 (Table 3), 35 DAA
  Observed efficacy (%) of L-glufosinate ammonium (150 g a.i./ha): 55%

## CCOC(=O)C(C)Oc1ccc(Oc2cnc3cc(Cl)ccc3n2)cc1 (stereo not drawn) [quizalofop-ethyl, Quizalofop-ethyl]
Example 1 (Table 2), 3 DAA
  Observed efficacy (%) of quizalofop-ethyl (25 g a.i./ha): 0%
Example 1 (Table 2), 28 DAA
  Observed efficacy (%) of quizalofop-ethyl (25 g a.i./ha): 0%
Example 1 (Table 2), 35 DAA
  Observed efficacy (%) of quizalofop-ethyl (25 g a.i./ha): 0%

## C[C@@H](Oc1ccc(Oc2cnc3cc(Cl)ccc3n2)cc1)C(=O)OCC1CCCO1 (stereo partly drawn) [quizalofop-p-tefuryl, Quizalofop-p-tefuryl]
Example 2 (Table 3), 3 DAA
  Observed efficacy (%) of quizalofop-p-tefuryl (25 g a.i./ha): 0%
Example 2 (Table 3), 28 DAA
  Observed efficacy (%) of quizalofop-p-tefuryl (25 g a.i./ha): 0%
Example 2 (Table 3), 35 DAA
  Observed efficacy (%) of quizalofop-p-tefuryl (25 g a.i./ha): 0%
